Experimental data reported in ChEMBL document CHEMBL5303304, “EUbOPEN Chemogenomics Library - IncuCyte” (2023).

Assays:
Format in all cases: toxicity, cell-based
U2OS = assay: Incucyte cell viability with U2OS; settings: human, 10 µM, compound concentration 10 uM
Fibroblast = assay: Incucyte cell viability with human fibroblast; settings: 10 µM, compound concentration 10 uM
HEK-293T = assay: Incucyte cell viability with HEK293T; settings: human, 10 µM, compound concentration 10 uM
Note: unitless GR value; below 1 slowed growth and below 0 cell loss.

SMILES	Growth Rate (U2OS; 0 h, replicate number 2)	Growth Rate (U2OS; 6 h, replicate number 1)	Growth Rate (U2OS; 6 h, replicate number 2)	Growth Rate (U2OS; 12 h, replicate number 1)	Growth Rate (U2OS; 12 h, replicate number 2)	Growth Rate (U2OS; 18 h, replicate number 1)	Growth Rate (U2OS; 18 h, replicate number 2)	Growth Rate (U2OS; 24 h, replicate number 1)	Growth Rate (U2OS; 24 h, replicate number 2)	Growth Rate (Fibroblast; 0 h, replicate number 1)	Growth Rate (Fibroblast; 12 h, replicate number 1)	Growth Rate (HEK-293T; 6 h, replicate number 1)	Growth Rate (HEK-293T; 12 h, replicate number 1)	Growth Rate (HEK-293T; 18 h, replicate number 1)	Growth Rate (U2OS; 0 h, replicate number 1)	Growth Rate (Fibroblast; 0 h, replicate number 2)	Growth Rate (HEK-293T; 6 h, replicate number 2)	Growth Rate (HEK-293T; 12 h, replicate number 2)	Growth Rate (Fibroblast; 6 h, replicate number 2)	Growth Rate (HEK-293T; 0 h, replicate number 1)	also measured
Nc1ccc(S(=O)(=O)Nc2ccnn2-c2ccccc2)cc1 [SULFAPHENAZOLE]	-0.29	0.27	0.05	0.83	1	0.83	0.88	0.86	0.91	-0.67	-1	0.11	0.6	0.44							Growth Rate (Fibroblast; 6 h, replicate number 1): -0.25; Growth Rate (Fibroblast; 24 h, replicate number 1): 0.6; Growth Rate (HEK-293T; 18 h, replicate number 2): 0.98; Growth Rate (HEK-293T; 24 h, replicate number 1): 0.45
O=C(Nc1ccc(Oc2ccc(Cl)cc2)c(Cl)c1)c1cc(I)cc(I)c1O [RAFOXANIDE]	-1	0.57		0.92	0.74	0.88					-1	-0.37	-0.61	-0.55	0.6	-0.93	0.49	0.91			Growth Rate (Fibroblast; 6 h, replicate number 1): -0.56; Growth Rate (HEK-293T; 24 h, replicate number 1): -0.48
CCOC(=O)c1cc2cc(-c3cc(C(=O)NCc4ccc(C(=O)O)cc4)nn3C)ccc2[nH]1 [BI 4394]		0.74			0.96		0.99	0.96				0.88	0.98	0.93	0.89				0.71	0.13	Growth Rate (Fibroblast; 12 h, replicate number 2): 0.54; Growth Rate (Fibroblast; 18 h, replicate number 2): 0.7; Growth Rate (Fibroblast; 24 h, replicate number 2): 0.86; Growth Rate (HEK-293T; 0 h, replicate number 2): 0.34
N#Cc1ccnc(Nc2cc(C3CCN(C4COC4)CC3)cc(N3CCC(F)(F)C3)n2)c1	-1	0.88	0.29	0.44	0.38	0.22	0.46	0.18	0.44			0.58	0.85	0.46			-0.9	-0.54	-1	-0.35	Growth Rate (Fibroblast; 12 h, replicate number 2): -0.47; Growth Rate (Fibroblast; 18 h, replicate number 1): -0.85; Growth Rate (Fibroblast; 18 h, replicate number 2): 0.21; Growth Rate (Fibroblast; 24 h, replicate number 1): -0.29; Growth Rate (Fibroblast; 24 h, replicate number 2): 0.43; Growth Rate (HEK-293T; 18 h, replicate number 2): -0.37; Growth Rate (HEK-293T; 24 h, replicate number 1): 0.44; Growth Rate (HEK-293T; 24 h, replicate number 2): -0.26
CC(C)N(C(=O)C1CCOCC1)c1cc(F)c(Oc2ncc(Cn3nccn3)cc2C(F)(F)F)cc1C(=O)O		0.91					0.98		0.93	0.24	0.85				0.83	-0.36					Growth Rate (Fibroblast; 6 h, replicate number 1): 0.7; Growth Rate (HEK-293T; 0 h, replicate number 2): 0.61
CC(C)C(=O)N[C@@H]1CCN(C(=O)Nc2nc3c(s2)-c2nc(-c4ccccc4Cl)ncc2CC3)C1				0.94	0.9	0.91	0.77	0.88	0.69	-0.95		0.21	0.16	0.29			-0.05	-0.08			Growth Rate (HEK-293T; 18 h, replicate number 2): 0.03; Growth Rate (HEK-293T; 24 h, replicate number 1): 0.37; Growth Rate (HEK-293T; 24 h, replicate number 2): 0.15
CN(C)Cc1cccc(NC(=C2C(=O)Nc3cc(C(N)=O)ccc32)c2ccccc2)c1	-0.78									-0.09	-0.97								0.24	0.9	Growth Rate (Fibroblast; 12 h, replicate number 2): 0.87; Growth Rate (Fibroblast; 18 h, replicate number 1): -0.83; Growth Rate (Fibroblast; 24 h, replicate number 1): 0.13; Growth Rate (HEK-293T; 0 h, replicate number 2): -0.24
CCc1cc2c(cc1N1CCC(N3CCOCC3)CC1)C(C)(C)c1[nH]c3cc(C#N)ccc3c1C2=O [ALECTINIB]		0.77	0.78		0.78		1	0.91	0.94			0.56	0.83	0.95			0.59	0.86	0.58		Growth Rate (Fibroblast; 24 h, replicate number 2): 0.89
CC(C)CNc1nc(N2CCN(CC3CCCOC3)CC2)ncc1C(=O)NCc1ccccc1 (configuration not stated)		0.3	0.72	0.83	0.63	0.99	0.76		0.79	-0.99		0.81					0.95		-1	0.68	Growth Rate (Fibroblast; 12 h, replicate number 2): -0.95; Growth Rate (Fibroblast; 18 h, replicate number 1): -0.97; Growth Rate (Fibroblast; 18 h, replicate number 2): -0.81; Growth Rate (Fibroblast; 24 h, replicate number 1): -0.8; Growth Rate (Fibroblast; 24 h, replicate number 2): -0.64
CSc1ccc(C(=O)/C=C/c2cc(C)c(OC(C)(C)C(=O)O)c(C)c2)cc1 [ELAFIBRANOR]	0.75	0.88	0.45	0.63	0.69	0.88		0.92	0.76	0.61					-0.15	0.85	0.6	0.79	0.74	0.18	Growth Rate (Fibroblast; 12 h, replicate number 2): 0.59; Growth Rate (Fibroblast; 18 h, replicate number 1): 0.87; Growth Rate (Fibroblast; 18 h, replicate number 2): 0.9; Growth Rate (Fibroblast; 24 h, replicate number 2): 0.75; Growth Rate (HEK-293T; 18 h, replicate number 2): 0.97; Growth Rate (HEK-293T; 24 h, replicate number 2): 0.99
O=C(O)c1ccc2c(c1)nc(NCc1ccccc1)c1ncncc12										-0.98	0.74				0.98	-0.94				-0.17	Growth Rate (HEK-293T; 0 h, replicate number 2): -0.9
COc1ccc(N(C(=O)Nc2c(C)cccc2C)c2cc(Nc3ccc(N4CCN(C)CC4)cc3)ncn2)c(OC)c1		0.85	0.97	0.77	0.57	0.25	0.14	-0.25	-0.2						0.61	-0.56					Growth Rate (HEK-293T; 0 h, replicate number 2): 1
